Entries after “also recorded” stand apart in the source; their conditions may differ.
How the values were obtained:
Type in all cases: cell-based
SLC38A1 (ATA1) = molecular target: T1, SLC38A1 (ATA1) (Homo sapiens, UniProt Q9H2H9); test: TEVC electrogenic coupled currents in oocytes; conditions: 100 µM L-alanine, 3 µM BPOHP
T1 construct: expressed in transfected cells; host or cells: Xenopus laevis oocytes (cRNA injection)
T1 sequence (Q9H2H9 1-487): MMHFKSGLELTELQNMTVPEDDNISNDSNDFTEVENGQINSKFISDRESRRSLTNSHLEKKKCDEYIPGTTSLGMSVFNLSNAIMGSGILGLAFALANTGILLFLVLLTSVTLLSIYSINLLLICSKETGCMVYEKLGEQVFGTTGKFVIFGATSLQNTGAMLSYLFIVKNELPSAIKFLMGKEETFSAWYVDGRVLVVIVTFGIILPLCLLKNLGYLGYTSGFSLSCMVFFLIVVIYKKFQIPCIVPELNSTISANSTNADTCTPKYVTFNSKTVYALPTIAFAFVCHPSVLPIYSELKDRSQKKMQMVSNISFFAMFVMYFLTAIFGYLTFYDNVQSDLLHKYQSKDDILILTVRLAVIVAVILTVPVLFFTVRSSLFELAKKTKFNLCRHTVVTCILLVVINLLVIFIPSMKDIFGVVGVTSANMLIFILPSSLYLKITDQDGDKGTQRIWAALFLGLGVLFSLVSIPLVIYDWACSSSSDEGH
Protocol: (§1) BPOHP activity was evaluated against the glutamate transporters paralogs within the SLC1A gene family (SLC1A 1–3) as well as at neutral amino acid transporters that share common ligand substrates with the SLC1 family including SLC38A1,2, and 4 (ATA1, ATA2, ATA3) and heteromeric transporters SLC7A10+SLC3A2 (asc-1/4f2). […] Finally, radiolabeled [^3H]D-serine uptake was used to assess the electroneutral SLC7A10+SLC3A2 transporter, in which 10 µM BPOHP had no effect (Figure S3).
(§2) Uptake was halted by washing 3 times with 4 °C ND96 buffer. Oocytes were then lysed in 0.1% Triton X-100, and radioactivity was counted via liquid scintillation. Dose response curves were generated by fitting fractional inhibition (I) to the expression I = Imax × [inhibitor]/([inhibitor] + IC50).
(§3) Two-electrode voltage clamp (TEVC) transporter currents were recorded with a GeneClamp 500 amplifier and Digidata 1320A analog–digital interface (Molecular Devices, San Jose, CA, USA). […] Data were acquired with Axograph (v1.7.6) and LabChart (v7) and analyzed with Kaleidagraph software (v4.1) (Synergy, Reading, PA, USA). Uncoupled anion currents associated with the transport of substrate and block of SLC1A4 or SLC1A5 mediated leak conductance were recorded in the presence of Ringer with 50% substitution of NaCl by NaSCN to amplify the non-transported anion conductance. […]

SLC38A4 (ATA3) = molecular target: T2, SLC38A4 (ATA3) (Homo sapiens, UniProt Q969I6); test: TEVC electrogenic coupled currents in oocytes; conditions: 100 µM L-alanine, 3 µM BPOHP
T2 construct: expressed in transfected cells; host or cells: Xenopus laevis oocytes (cRNA injection)
T2 sequence (Q969I6 1-547): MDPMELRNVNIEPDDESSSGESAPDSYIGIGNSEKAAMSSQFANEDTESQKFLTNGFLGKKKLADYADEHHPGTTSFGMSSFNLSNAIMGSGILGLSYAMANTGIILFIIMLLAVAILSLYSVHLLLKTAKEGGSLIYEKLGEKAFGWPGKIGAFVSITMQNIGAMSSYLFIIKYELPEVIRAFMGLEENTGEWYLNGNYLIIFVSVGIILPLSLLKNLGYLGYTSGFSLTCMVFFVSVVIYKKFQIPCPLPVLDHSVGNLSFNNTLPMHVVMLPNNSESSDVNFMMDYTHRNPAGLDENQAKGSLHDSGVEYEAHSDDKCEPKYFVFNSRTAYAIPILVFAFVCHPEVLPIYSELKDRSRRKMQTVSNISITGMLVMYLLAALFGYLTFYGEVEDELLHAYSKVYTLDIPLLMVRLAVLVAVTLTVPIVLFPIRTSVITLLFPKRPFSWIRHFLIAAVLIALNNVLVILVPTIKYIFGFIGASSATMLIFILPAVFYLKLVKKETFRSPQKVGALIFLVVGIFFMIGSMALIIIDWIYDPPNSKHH
Protocol: as §1, §2, §3

SLC1A2 (EAAT2) = molecular target: T3, SLC1A2 (EAAT2) (Homo sapiens, UniProt P43004); test: TEVC in oocytes expressing glutamate transporter; conditions: 10 µM L-glu current, read-out: IC50, block of glutamate current
T3 construct: expressed in transfected cells; host or cells: Xenopus laevis oocytes (cRNA injection)
Protocol: as §1, §2, §3

T3 sequence (P43004 whole entry): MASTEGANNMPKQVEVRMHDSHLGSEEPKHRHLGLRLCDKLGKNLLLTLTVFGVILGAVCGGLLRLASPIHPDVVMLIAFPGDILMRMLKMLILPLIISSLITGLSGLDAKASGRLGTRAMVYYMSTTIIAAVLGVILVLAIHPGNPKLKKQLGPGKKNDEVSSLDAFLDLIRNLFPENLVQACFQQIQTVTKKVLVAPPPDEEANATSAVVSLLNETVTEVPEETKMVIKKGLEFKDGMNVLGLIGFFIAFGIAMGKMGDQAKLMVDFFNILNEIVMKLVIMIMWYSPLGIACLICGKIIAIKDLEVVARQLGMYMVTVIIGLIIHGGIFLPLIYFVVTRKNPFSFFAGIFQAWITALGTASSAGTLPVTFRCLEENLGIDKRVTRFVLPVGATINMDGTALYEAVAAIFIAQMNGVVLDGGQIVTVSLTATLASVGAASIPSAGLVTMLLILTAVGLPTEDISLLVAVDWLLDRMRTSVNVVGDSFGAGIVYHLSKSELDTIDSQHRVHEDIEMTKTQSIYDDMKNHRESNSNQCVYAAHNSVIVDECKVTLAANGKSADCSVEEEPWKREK

O=C(O)[C@H]1NC[C@@H](OCc2ccc(-c3ccccc3)cc2)[C@@H]1O [14e]
block of L-alanine current (SLC38A1 (ATA1)): no effect; also recorded: no discernible block; also recorded: no inhibition was detected
block of L-alanine current (SLC38A4 (ATA3)): no effect; also recorded: no discernible block; also recorded: no inhibition was detected
IC50 (SLC1A2 (EAAT2)): 1.2 µM

Reference: publication PMC11123841, “Discovery and Synthesis of Hydroxy-L-Proline Blockers of the Neutral Amino Acid Transporters SLC1A4 (ASCT1) and SLC1A5 (ASCT2)” (Molecules, 2024)
